Data from ChEMBL document CHEMBL4321876 (J Med Chem, 2020).
Calls of active or inactive are those of the source. The rule behind the calls is not given here.

Key:
[1] = Toxicity in human MV4-11 cells xenografted Balb/c mouse assessed as body weight loss at 50 to 100 mg/kg, po administered for 28 days measured twice daily during compound dosing; type: organism-based; details: in vivo, 672 h
[2] = AUClast in Sprague-Dawley rat at 3 mg/kg, po by LC-MS/MS analysis; type: ADME, organism-based; design: dose 3 mg/kg, time 0 - last, route oral; details: in vivo
LNCaP-Clone-FGC = experiment: Antiproliferative activity against human LNCaP-FGC cells measured after 5 days by celltiter-glo luminescence assay; type: functional, cell-based; details: 120 h
CWR22R = experiment: Antiproliferative activity against human 22Rv1 cells measured after 3 days by celltiter-glo luminescence assay; type: functional, cell-based; details: 22Rv1, 72 h
[3] = Half life in Sprague-Dawley rat at 3 mg/kg, po by LC-MS/MS analysis; type: ADME, organism-based; details: in vivo
Maver1 = experiment: Antiproliferative activity against human Maver1 cells measured after 3 days by celltiter-glo luminescence assay; type: functional, cell-based; details: Maver1, 72 h
[4] = Clearance in Sprague-Dawley rat at 1 mg/kg, iv by LC-MS/MS analysis; type: ADME, organism-based; details: in vivo
[5] = Oral bioavailability in Sprague-Dawley rat at 3 mg/kg by LC-MS/MS analysis; type: ADME, organism-based; details: in vivo
[6] = Intrinsic clearance in rat liver microsomes assessed per mg protein at 0.1 uM preincubated for 10 mins followed by NADPH addition and measured up to 60 mins by UPLC-MS/MS analysis; type: ADME, Microsome; details: read-out: CLH
[7] = Tmax in Sprague-Dawley rat at 3 mg/kg, po by LC-MS/MS analysis; type: ADME, organism-based; details: in vivo
[8] = target: T1, Histone acetyltransferase p300 (Homo sapiens, UniProt Q09472); experiment: Inhibition of p300 (unknown origin) using histone H3 (1 to 21 residues) as substrate preincubated for 15 mins followed by substrate and [3H]acetyl-CoA addition and measured after 60 mins by scintillation counting analysis
[9] = Half life in Sprague-Dawley rat at 1 mg/kg, iv by LC-MS/MS analysis; type: ADME, organism-based; details: in vivo
Kasumi 1 = experiment: Antiproliferative activity against human Kasumi-1 cells measured after 3 days by celltiter-glo luminescence assay; type: functional, cell-based; details: Kasumi 1, 72 h
MV4-11 [10] = experiment: Antiproliferative activity against human MV4-11 cells measured after 3 days by celltiter-glo luminescence assay; type: functional, cell-based; details: MV4-11, 72 h
K562 = experiment: Antiproliferative activity against human K562 cells measured after 3 days by celltiter-glo luminescence assay; type: functional, cell-based; details: K562, 72 h
[11] = target: T1, Histone acetyltransferase p300; experiment: Inhibition of p300 in human MV4-11 cells assessed as decrease in H3K27 acetylation measured after 6 hrs by Western blot analysis; type: cell-based
[12] = Protein binding in rat plasma; type: ADME, cell-free; details: read-out: PPB (converted)
[13] = Cmax in Sprague-Dawley rat at 3 mg/kg, po by LC-MS/MS analysis; type: ADME, organism-based; design: dose 3 mg/kg, route oral; details: in vivo
[14] = Volume of distribution at steady state in Sprague-Dawley rat at 1 mg/kg, iv by LC-MS/MS analysis; type: ADME, organism-based; details: in vivo, read-out: Vdss
HT = experiment: Antiproliferative activity against human HT cells measured after 3 days by celltiter-glo luminescence assay; type: functional, cell-based; details: 72 h
[15] = Intrinsic clearance in mouse liver microsomes assessed per mg protein at 0.1 uM preincubated for 10 mins followed by NADPH addition and measured up to 60 mins by UPLC-MS/MS analysis; type: ADME, Microsome; details: read-out: CLH
[16] = target: Voltage-gated inwardly rectifying potassium channel KCNH2 (Homo sapiens, UniProt Q12809); experiment: Inhibition of human ERG
[17] = AUClast in Sprague-Dawley rat at 1 mg/kg, iv by LC-MS/MS analysis; type: ADME, organism-based; design: dose 1 mg/kg, route intravenous, time 0 - last; details: in vivo
[18] = Intrinsic clearance in human liver microsomes assessed per mg protein at 0.1 uM preincubated for 10 mins followed by NADPH addition and measured up to 60 mins by UPLC-MS/MS analysis; type: ADME, Microsome; details: read-out: CLH
[19] = Toxicity in human MV4-11 cells xenografted Balb/c mouse assessed as adverse effect at 50 to 100 mg/kg, po administered for 28 days; type: organism-based; details: in vivo, 672 h
MV4-11 [20] = experiment: Antitumor activity against human MV4-11 cells xenografted in Balb/c mouse assessed as tumor growth inhibition at 100 mg/kg, po administered for 28 days measured twice daily during compound dosing relative to control; type: functional; details: MV4-11, po, 672 h, read-out: TGI
MV4-11 [21] = experiment: Antitumor activity against human MV4-11 cells xenografted in Balb/c mouse assessed as tumor growth inhibition at 50 mg/kg, po administered for 28 days measured twice daily during compound dosing relative to control; type: functional; details: MV4-11, po, 672 h, read-out: TGI
[22] = target: T1, Histone acetyltransferase p300; experiment: Inhibition of p300 in human MV4-11 cells assessed as decrease in MYC mRNA level at 0.2 to 1 uM measured after 24 hrs by SYBR dye-based qRT-PCR analysis; type: cell-based
[23] = target: T1, Histone acetyltransferase p300; experiment: Binding affinity to p300 in human MV4-11 cells assessed as stabilization of protein measured after 12 hrs by CETSA; type: cell-based

T1 sequence (Q09472 whole entry, the tested form may be a part): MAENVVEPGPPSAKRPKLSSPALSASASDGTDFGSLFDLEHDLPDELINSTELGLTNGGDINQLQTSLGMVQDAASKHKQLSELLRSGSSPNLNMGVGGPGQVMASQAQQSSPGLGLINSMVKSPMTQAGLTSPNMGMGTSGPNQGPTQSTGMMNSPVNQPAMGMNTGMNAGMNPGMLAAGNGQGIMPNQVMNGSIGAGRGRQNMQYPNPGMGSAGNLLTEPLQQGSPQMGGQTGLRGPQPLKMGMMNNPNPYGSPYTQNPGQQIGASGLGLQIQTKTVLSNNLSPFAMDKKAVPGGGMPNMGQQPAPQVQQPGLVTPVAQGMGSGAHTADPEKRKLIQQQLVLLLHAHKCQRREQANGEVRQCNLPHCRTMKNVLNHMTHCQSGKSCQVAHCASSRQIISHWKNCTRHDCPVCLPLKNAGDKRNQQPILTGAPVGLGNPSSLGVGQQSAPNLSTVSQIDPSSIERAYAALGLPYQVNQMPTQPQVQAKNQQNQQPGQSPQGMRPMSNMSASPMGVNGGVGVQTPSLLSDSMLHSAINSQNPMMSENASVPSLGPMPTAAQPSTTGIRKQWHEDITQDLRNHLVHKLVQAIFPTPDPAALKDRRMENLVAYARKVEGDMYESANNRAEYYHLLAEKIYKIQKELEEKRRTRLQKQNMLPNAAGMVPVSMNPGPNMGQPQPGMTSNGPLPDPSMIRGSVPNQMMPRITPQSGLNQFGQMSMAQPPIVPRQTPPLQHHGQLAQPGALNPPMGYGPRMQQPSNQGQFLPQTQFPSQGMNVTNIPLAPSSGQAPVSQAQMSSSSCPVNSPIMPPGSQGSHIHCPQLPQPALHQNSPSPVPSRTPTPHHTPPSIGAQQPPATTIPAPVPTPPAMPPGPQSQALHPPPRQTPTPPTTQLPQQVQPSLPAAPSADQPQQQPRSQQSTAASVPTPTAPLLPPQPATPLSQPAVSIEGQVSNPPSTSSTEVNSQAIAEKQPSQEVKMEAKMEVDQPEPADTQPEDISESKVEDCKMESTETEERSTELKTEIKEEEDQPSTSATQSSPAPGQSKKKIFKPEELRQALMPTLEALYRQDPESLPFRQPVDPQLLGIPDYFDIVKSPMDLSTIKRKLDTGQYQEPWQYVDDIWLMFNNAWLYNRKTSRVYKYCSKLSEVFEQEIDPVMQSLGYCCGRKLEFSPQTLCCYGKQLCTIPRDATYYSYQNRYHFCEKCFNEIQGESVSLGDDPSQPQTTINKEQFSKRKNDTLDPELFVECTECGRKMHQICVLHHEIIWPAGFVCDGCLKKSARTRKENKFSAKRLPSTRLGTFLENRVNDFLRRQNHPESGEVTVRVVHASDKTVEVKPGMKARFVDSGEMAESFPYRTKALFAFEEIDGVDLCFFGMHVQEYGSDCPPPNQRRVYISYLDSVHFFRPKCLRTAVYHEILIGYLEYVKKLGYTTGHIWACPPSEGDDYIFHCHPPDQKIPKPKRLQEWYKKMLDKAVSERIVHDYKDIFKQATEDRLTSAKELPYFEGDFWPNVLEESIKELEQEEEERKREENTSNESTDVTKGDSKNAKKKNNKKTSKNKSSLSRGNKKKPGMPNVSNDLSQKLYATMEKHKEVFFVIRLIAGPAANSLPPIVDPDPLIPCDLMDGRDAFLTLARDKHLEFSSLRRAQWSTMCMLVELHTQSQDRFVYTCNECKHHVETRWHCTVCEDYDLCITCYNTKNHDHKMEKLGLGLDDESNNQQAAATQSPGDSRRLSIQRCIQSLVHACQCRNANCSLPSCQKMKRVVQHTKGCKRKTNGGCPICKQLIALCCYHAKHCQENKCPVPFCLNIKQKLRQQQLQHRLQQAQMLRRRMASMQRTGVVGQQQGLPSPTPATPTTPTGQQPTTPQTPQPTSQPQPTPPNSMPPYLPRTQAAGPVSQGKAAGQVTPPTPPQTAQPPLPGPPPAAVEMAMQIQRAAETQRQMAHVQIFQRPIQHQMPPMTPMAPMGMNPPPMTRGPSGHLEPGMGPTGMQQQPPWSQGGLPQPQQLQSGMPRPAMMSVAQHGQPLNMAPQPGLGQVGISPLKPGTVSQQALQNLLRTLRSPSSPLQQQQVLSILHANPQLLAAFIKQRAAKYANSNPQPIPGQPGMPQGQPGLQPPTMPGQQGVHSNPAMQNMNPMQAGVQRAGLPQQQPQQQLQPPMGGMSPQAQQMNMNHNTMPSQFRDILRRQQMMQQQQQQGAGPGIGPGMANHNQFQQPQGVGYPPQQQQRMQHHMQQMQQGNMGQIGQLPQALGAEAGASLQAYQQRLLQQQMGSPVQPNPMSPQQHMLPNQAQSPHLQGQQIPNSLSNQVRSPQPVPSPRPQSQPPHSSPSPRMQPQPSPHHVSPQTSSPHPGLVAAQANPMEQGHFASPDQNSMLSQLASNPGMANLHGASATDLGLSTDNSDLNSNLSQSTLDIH
Voltage-gated inwardly rectifying potassium channel KCNH2, sequence (Q12809 whole entry): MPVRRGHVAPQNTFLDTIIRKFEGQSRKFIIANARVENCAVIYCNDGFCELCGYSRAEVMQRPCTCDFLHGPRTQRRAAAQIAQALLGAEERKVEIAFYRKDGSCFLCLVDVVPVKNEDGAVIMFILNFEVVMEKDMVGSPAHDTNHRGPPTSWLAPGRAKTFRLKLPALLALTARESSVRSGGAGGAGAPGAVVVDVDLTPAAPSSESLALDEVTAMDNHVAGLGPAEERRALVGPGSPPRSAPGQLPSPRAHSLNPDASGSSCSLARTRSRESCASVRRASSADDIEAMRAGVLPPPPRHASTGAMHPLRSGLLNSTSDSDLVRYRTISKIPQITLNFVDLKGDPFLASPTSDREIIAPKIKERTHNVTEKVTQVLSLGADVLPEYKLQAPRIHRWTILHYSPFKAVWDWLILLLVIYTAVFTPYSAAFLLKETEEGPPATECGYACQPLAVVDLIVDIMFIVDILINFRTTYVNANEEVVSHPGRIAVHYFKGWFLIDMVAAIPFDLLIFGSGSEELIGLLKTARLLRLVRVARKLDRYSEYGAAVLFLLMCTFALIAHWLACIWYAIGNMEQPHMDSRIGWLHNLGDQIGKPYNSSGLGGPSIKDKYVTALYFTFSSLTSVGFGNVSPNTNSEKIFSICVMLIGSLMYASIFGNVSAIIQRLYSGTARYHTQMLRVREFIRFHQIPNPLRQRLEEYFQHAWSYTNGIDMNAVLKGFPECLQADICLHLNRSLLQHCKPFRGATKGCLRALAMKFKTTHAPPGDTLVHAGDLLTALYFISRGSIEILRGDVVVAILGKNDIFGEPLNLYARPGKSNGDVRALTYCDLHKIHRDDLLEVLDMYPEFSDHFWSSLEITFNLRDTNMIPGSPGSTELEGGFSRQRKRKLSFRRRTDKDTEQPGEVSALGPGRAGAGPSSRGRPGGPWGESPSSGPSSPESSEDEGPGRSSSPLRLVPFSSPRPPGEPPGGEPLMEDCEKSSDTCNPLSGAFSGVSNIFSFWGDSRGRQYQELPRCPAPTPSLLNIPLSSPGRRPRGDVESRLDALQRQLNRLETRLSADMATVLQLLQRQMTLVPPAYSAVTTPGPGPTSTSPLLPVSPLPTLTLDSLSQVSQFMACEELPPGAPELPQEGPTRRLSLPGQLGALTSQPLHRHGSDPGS

Cn1cc(-c2ccc3c(c2)CC[C@]32NC(=O)N(CC(=O)N3Cc4cc(F)ccc4OC[C@H]3C(F)(F)F)C2=O)cn1
Activity [1]: Non-Toxic | AUC(0-t) [2]: 3.71 µM·h | IC50 (LNCaP-Clone-FGC): 9.8 nM | IC50 (CWR22R): 4.4 nM | half-life [3]: 61.2 min | IC50 (Maver1): 2.6 nM | clearance [4]: 13.4 mL/min/kg | bioavailability [5]: 56% | microsomal CLint at 0.1 µM [6]: 32.7 µL/min/mg | Tmax [7]: 49.8 min | IC50 [8]: 1.8 nM | half-life [9]: 90 min | IC50 (Kasumi 1): 40.5 nM | IC50 (MV4-11 [10]): 4.2 nM | IC50 (K562): 104 nM | inhibition [11]: Dose-dependent effect | fraction unbound [12]: 0.018 | Cmax [13]: 1120 nM | Vd [14]: 1.5 L/kg | IC50 (HT): > 10 µM | microsomal CLint at 0.1 µM [15]: 36.8 µL/min/mg | IC50 [16]: > 40 µM | AUC(0-t) [17]: 2.22 µM·h | microsomal CLint at 0.1 µM [18]: 18.2 µL/min/mg | Activity [19]: Non-Toxic | inhibition in vivo at 100 mg/kg (MV4-11 [20]): 85.7% | inhibition in vivo at 50 mg/kg (MV4-11 [21]): 75% | inhibition [22]: Active | Activity [23]: Dose-dependent effect
